Columns and labels:
Type in all cases: functional
[1] = system: Panel renal (Carcinoma cell lines); assay: Compound was tested for 50% lethality in Renal cancer cell lines; settings: Homo sapiens, read-out: Log LC50 (the source's name) (converted)
[2] = system: Panel ovarian (Carcinoma cell lines); assay: Compound was tested for 50% lethality in Ovarian cancer cell lines; settings: Homo sapiens, read-out: Log LC50 (the source's name) (converted)
[3] = system: leukaemia cell line; assay: Compound was tested for 50% lethality in leukemia cancer cell lines; settings: Homo sapiens, read-out: Log LC50 (the source's name) (converted)
[4] = system: Panel prostate (Carcinoma cell lines); assay: Compound was tested for 50% lethality in Prostate cancer cell lines; settings: Homo sapiens, read-out: Log LC50 (converted)
[5] = system: Panel breast (Carcinoma cell lines); assay: Compound was tested for 50% lethality in Breast cancer cell lines; settings: Homo sapiens, read-out: Log LC50 (the source's name) (converted)
[6] = system: Panel CNS (Carcinoma cell lines); assay: Compound was tested for 50% lethality in CNS cancer cell lines; settings: Homo sapiens, read-out: Log LC50 (the source's name) (converted)
[7] = system: Panel colon (Carcinoma cell lines); assay: Compound was tested for 50% lethality in Colon cancer cell lines; settings: Homo sapiens, read-out: Log LC50 (the source's name) (converted)
[8] = system: NSCLC; assay: Compound was tested for 50% lethality in Non-small-cell lung cancer cell lines; settings: Homo sapiens, read-out: Log LC50 (the source's name) (converted)
[9] = system: Panel melanoma (Carcinoma cell lines); assay: Compound was tested for 50% lethality in Melanoma cancer cell lines; settings: Homo sapiens, read-out: Log LC50 (the source's name) (converted)

**Q.** Which CC50 [1] does the source give for COc1cc2c(cc1OCCCN1CCN(C)CC1)N=C[C@@H]1CCCN1C2=O here?
**A.** 56.2 µM

**Q.** And the CC50 [2]?
**A.** 61.7 µM

**Q.** What about the CC50 [3] of the same compound?
**A.** 52.5 µM

**Q.** And the CC50 [4]?
**A.** > 100 µM

**Q.** What about the CC50 [5] of the same compound?
**A.** 64.6 µM

**Q.** And the CC50 [6]?
**A.** 64.6 µM

**Q.** And the CC50 [7]?
**A.** 55 µM

**Q.** What about the CC50 [8] of the same compound?
**A.** 67.6 µM

**Q.** And the CC50 [9]?
**A.** 30.9 µM

**Q.** How did the CC50 [1] turn out when COc1cc2c(cc1OCCCN1CCOCC1)N=C[C@@H]1CCCN1C2=O was run?
**A.** 97.7 µM

**Q.** What about the CC50 [2] of the same compound?
**A.** > 100 µM

**Q.** What about the CC50 [3] of the same compound?
**A.** > 100 µM

**Q.** What about the CC50 [4] of the same compound?
**A.** > 100 µM

**Q.** And the CC50 [5]?
**A.** 97.7 µM

**Q.** And the CC50 [6]?
**A.** 95.5 µM

**Q.** And the CC50 [7]?
**A.** 66.1 µM

**Q.** And the CC50 [8]?
**A.** 95.5 µM

**Q.** What about the CC50 [9] of the same compound?
**A.** 87.1 µM

**Q.** What does the source list for CCN(CC)CCCOc1cc2c(cc1OC)C(=O)N1CCC[C@H]1C=N2?
**A.** CC50 [1]: > 100 µM; CC50 [2]: > 100 µM; CC50 [3]: > 100 µM; CC50 [4]: > 100 µM; CC50 [5]: > 100 µM; CC50 [6]: > 100 µM; CC50 [7]: 87.1 µM; CC50 [8]: > 100 µM; CC50 [9]: 93.3 µM

From ChEMBL document CHEMBL1135179, “Synthesis of C-8 alkylamino substituted pyrrolo[2,1-c][1,4]benzodiazepines as potential anti-cancer agents” (2002)
